In PMC4251666 (ACS chemical biology, 2012):

Tested on: cytosolic cysteine proteases
Assay: Calpain activity assay in isolated renal cytosol
Type: biochemical, New Zealand White rabbits
Conditions: 10 μM, 50 μM SLLVY-AMC

CCCC[C@@H](C=O)NC(=O)[C@H](CC(C)C)NC(=O)OCc1ccccc1 [Calpeptin]
inhibition of activity in isolated cytosol: ~ 50%
